Consider 6 molecules from patent US6943158B2, “Diazinopyrimidines” (Roche Palo Alto LLC, priority 2002, dated 2005).

In one series the target is T1, p38 MAP kinase (Homo sapiens, UniProt Q16539).
T1 construct: made in house; host or cells: E. coli (co-expressed with SEK-1 and MEKK to phosphorylate it)
Nature of the series: in vitro p38 MAP kinase inhibition assay (transfer of γ-33P from ATP to Myelin Basic Protein). In kind it is biochemical. The following applies: phosphorylated recombinant p38 MAP kinase, MBP substrate, γ-33P-ATP; read-out: p-38 inhibitory activity, IC50. The procedure:
This example illustrates an in vitro assay procedure for determining p38 MAP kinase inhibition by a compound of Formula I.
The p-38 MAP kinase inhibitory activity of compounds of this invention in vitro is determined by measuring the transfer of the γ-phosphate from γ-^33P-ATP by p-38 kinase to Myelin Basic Protein (MBP), using the a minor modification of the method described in Ahn, N. G.; et al. J. Biol. Chem. Vol. 266(7), 4220-4227, (1991).
The phosphorylated form of the recombinant p38 MAP kinase was expressed with SEK-1 and MEKK in E. Coli and then purified by affinity chromatography using a Nickel column.
The phosphorylated p38 MAP kinase is diluted in kinase buffer (20 mM 3-(N-morpholino)propanesulfonic acid, pH 7.2, 25 mM β-glycerol phosphate, 5 mM ethylene glycol-bis(beta-aminoethyl ether)-N,N,N′,N′-tetraacetic acid, 1 mM sodium vanadate, 1 mM dithiothreitol, 40 mM magnesium chloride). Test compound dissolved in DMSO or only DMSO (control) is added and the samples are incubated for 10 min at 30° C. The kinase reaction is initiated by the addition of a substrate cocktail containing MBP and γ-^33P-ATP. […] The phosphorylated MBP is then separated from the residual γ-^33P-ATP using a phosphocellulose membrane (Millipore, Bedford, Mass.) and quantitated using a scintillation counter (Packard, Meriden, Conn.). […]

Another series concerns the target T2, FGFR.
T2 construct: fused on or other part: GST tag
Put plainly: in vitro FGFR kinase inhibition HTRF assay. In kind it is biochemical. The following applies: recombinant GST-tagged FGFR, 10 μM ATP, 37° C. 30 minutes. The method, then:
To determine inhibition of FGFR activity, kinase assays were conducted using an HTRF (Homogeneous Time Resolved Fluorescence) assay. This assay is described in A. J. Kolb et. al., Drug Discovery Today, 1998, 3(7), p 333.
Prior to kinase reaction, recombinant GST-tagged FGFR enzyme was activated at room temperature for 1 hour in the following activation buffer: 100 mM HEPES, pH 7.4, 50 mM NaCl, 20 mM MgCl2, and 4 mM ATP.
Kinase activity assays were performed in 96-well polypropylene plates (Falcon) with a total volume of 90 μL in each well. Each well contained 1 μM substrate (Biotin-EEEEYFELV), 1.5 μM activated FGFR, and a test compound with one of 8 assay concentrations ranging from 100 μM to […] (1:5 serial dilution). The kinase activity assay was done in the presence of 100 mM HEPES, pH 7.4, 1 mM DTT, 0.1 mM Na2VO4, 0.4 mM MgCl2, 0.4 mM MnCl2, 50 mM NaCl (from KDR stock solution), 1% DMSO (from compound), 10 μM ATP (Km=8.5 μM for FGFR) and 0.02% BSA. The reaction was incubated at 37° C. for 30 minutes. To stop the FGFR reaction, 72 μL of reaction mixture was transferred into a STOP plate containing 18 μL of revelation buffer (20 mM EDTA, 50 mM HEPES, pH 7.4, 0.02% BSA, 10 nM Eu-labelled anti-p Y antibody (final conc. 2 nM), and 100 nM streptavidin (final conc. 20 nM)). After mixing, 35 μL of solution was transferred into duplicate wells of a 384-well black plate (Costar), and read at 615/665 nm on a Wallac Victor 5 reader.
Compound IC50 values were determined from duplicate sets of data, and calculated by using Excel and fitting data to equation Y=[(a−b)/{1+(X/c)^d]+b, where a and b are enzyme activity in the presence of no test inhibitor compound and an infinite amount of inhibitor test compound, respectively, c is the IC50 and d is the hill constant of the compound response. The IC50 value is the concentration of test compound that reduces by 50% the enzyme activity under the test conditions described. Compounds of the invention were active in the assay. Selected IC50 values are shown below.
Background: In TR-FRET formats the signal depends on donor and acceptor labels being close together.

Molecules are shown by their SMILES.

T1 sequence (Q16539 whole entry): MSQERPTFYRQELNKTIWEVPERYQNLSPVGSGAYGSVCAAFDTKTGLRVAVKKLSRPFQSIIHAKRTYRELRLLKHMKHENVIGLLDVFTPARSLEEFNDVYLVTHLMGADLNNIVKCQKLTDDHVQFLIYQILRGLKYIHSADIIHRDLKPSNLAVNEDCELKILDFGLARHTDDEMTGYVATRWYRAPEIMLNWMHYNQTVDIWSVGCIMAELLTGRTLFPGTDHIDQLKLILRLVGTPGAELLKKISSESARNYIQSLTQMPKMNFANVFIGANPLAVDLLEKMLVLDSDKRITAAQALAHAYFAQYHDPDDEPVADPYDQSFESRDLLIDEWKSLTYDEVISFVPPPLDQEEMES

The IC50 is the concentration needed to halve the response being measured. What is called melting point is the temperature, or range, at which the solid turns liquid. `CN1N=C(c2ccccc2Cl)Oc2cnc(NC3CCOCC3)nc21` [compound 1, 2-methyl-4-(2-chlorophenyl)-6-(tetrahydropyranyl-4-amino)-4H-1,3,4-pyrimido[4,5-e]oxadiazine]: the melting point fell in the range of 171 to 172.1 °C. Moreover, the IC50 on p38 MAP kinase is 189 nM. Regarding `CN1N=C(c2ccccc2F)Oc2cnc(NC3CCOCC3)nc21` [compound 2], the IC50 at p38 MAP kinase was found to be 2200 nM. `CN1N=C(c2c(Cl)cccc2Cl)Oc2cnc(Nc3ccccc3)nc21` [compound 5, [3-(2,6-dichlorophenyl)-1-methyl-1H-pyrimido[4,5-e][1,3,4]oxadiazin-7-yl]-phenyl-amine]: the IC50 on FGFR is 180 nM. The same measure, in the same setting: the same measure for `CN1N=C(c2c(Cl)cccc2Cl)Oc2cnc(Nc3ccc(F)cc3)nc21` [compound 6, [3-(2,6-Dichloro-phenyl)-1-methyl-1H-pyrimido[4,5-e][1,3,4]oxadiazin-7-yl]-(4-fluoro-phenyl)-amine]: 240 nM.

Regarding `CN1N=C(c2c(Cl)cccc2Cl)Oc2cnc(Nc3cccc(Cl)c3)nc21` [compound 7, [3-(2,6-Dichloro-phenyl)-1-methyl-1H-pyrimido[4,5-e][1,3,4]oxadiazin-7-yl]-(3-chloro-phenyl)-amine], at FGFR, the 50% inhibitory concentration (IC50) was determined as 320 nM. With `CN1N=C(c2c(Cl)cccc2Cl)Oc2cnc(Nc3ccc(N4CCOCC4)cc3)nc21` [compound 29, [3-(2,6-dichlorophenyl)-1-methyl-1H-pyrimido[4,5-e][1,3,4]oxadiazin-7-yl]-(4-morpholin-4-yl-phenyl)amine], the melting point was 192.2 to 200.3 °C.
